# From ChEMBL document CHEMBL5154908, “Design, Synthesis, and Biological Characterization of Inhaled p38α/β MAPK Inhibitors for the Treatment of Lung Inflammatory Diseases” (J Med Chem, 2022)
# Molecular target: T1, Mitogen-activated protein kinase 14 (Homo sapiens, UniProt Q16539)
# Assay: Inhibition of human recombinant full length GST-tagged p38alpha expressed in Escherichia coli preincubated for 2 hrs followed by ATP addition and measured after 1 hr by Alpha screen assay
# T1 sequence (Q16539 whole entry): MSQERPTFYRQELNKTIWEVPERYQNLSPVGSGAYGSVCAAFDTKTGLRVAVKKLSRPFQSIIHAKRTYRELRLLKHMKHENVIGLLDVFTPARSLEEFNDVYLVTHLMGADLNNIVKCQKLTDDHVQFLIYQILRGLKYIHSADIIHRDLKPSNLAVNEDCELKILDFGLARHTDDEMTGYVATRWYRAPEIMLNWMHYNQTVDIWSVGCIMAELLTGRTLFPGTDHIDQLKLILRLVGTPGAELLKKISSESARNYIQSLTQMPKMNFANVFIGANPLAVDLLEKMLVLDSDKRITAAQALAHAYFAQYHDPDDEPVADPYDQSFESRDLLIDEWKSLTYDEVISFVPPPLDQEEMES
row,SMILES,IC50
1,CC(C)(C)c1cc(NC(=O)N[C@H]2CC[C@@H](Oc3ccc4nnc(N5CCCCC5)n4c3)c3ccccc32)n(-c2ccc(Cl)c(O)c2)n1,0.5 nM
2,CC(C)(C)c1cc(NC(=O)N[C@H]2CC[C@@H](Oc3ccc4nnc(N5CCCCC5)n4c3)c3ccccc32)n(-c2cccc(CN3CCCCC3)c2)n1,1.3 nM
3,CC(C)c1nnc2ccc(O[C@@H]3CC[C@H](NC(=O)Nc4cc(C(C)(C)C)nn4-c4ccccc4)c4ccccc43)cn12,0.06 nM
4,C[C@H]1CCCCN1c1nnc2ccc(O[C@@H]3CC[C@H](NC(=O)Nc4cc(C(C)(C)C)nn4-c4cnn(CCN5CCN(C)CC5)c4)c4ccccc43)cn12,0.3 nM
5,C[C@H]1CCCCN1c1nnc2ccc(O[C@@H]3CC[C@H](NC(=O)Nc4cc(C(C)(C)C)nn4-c4cncc(OCCN(C)C)c4)c4ccccc43)cn12,0.03 nM
6,Cc1ccc(-n2nc(C(C)(C)C)cc2NC(=O)N[C@H]2CC[C@@H](Oc3ccc4nnc(C5CCCCC5)n4c3)c3ccccc32)cc1,0.3 nM
7,CC(C)(C)c1cc(NC(=O)N[C@H]2CC[C@@H](Oc3ccc4nnc(N5CCC(O)CC5)n4c3)c3ccccc32)n(-c2ccc(CO)cc2)n1,0.4 nM
8,CC(C)c1nnc2ccc(O[C@@H]3CC[C@H](NC(=O)Nc4cc(C(C)(C)C)nn4C)c4ccccc43)cn12,0.3 nM
9,C[C@H]1CCCCN1c1nnc2ccc(O[C@@H]3CC[C@H](NC(=O)Nc4cc(C(C)(C)C)nn4-c4cnn(CCN5CCC(O)CC5)c4)c4ccccc43)cn12,0.4 nM
10,C[C@@H]1CCC[C@H](C)N1c1nnc2ccc(O[C@@H]3CC[C@H](NC(=O)Nc4cc(C(C)(C)C)nn4-c4cccc(OCCN(C)C)c4)c4ccccc43)cn12,0.3 nM
11,C[C@H]1CCCCN1c1nnc2ccc(O[C@@H]3CC[C@H](NC(=O)Nc4cc(C(C)(C)C)nn4-c4cccc(OCCN5CCN(C)CC5)c4)c4ccccc43)cn12,0.3 nM
12,COCCN(C)CCn1cc(-n2nc(C(C)(C)C)cc2NC(=O)N[C@H]2CC[C@@H](Oc3ccc4nnc(N5CCCC[C@@H]5C)n4c3)c3ccccc32)cn1,0.2 nM
13,Cc1ccc(-n2nc(C(C)(C)C)cc2NC(=O)N[C@H]2CC[C@H](Oc3ccc4nnc(C(C)C)n4c3)CC2)cc1,6.1 nM
14,C[C@H]1CCCCN1c1nnc2ccc(O[C@@H]3CC[C@H](NC(=O)Nc4cc(C(C)(C)C)nn4-c4cccc(OCCN(C)C)n4)c4ccccc43)cn12,2 nM
15,C[C@@H]1CCCCN1c1nnc2ccc(O[C@@H]3CC[C@H](NC(=O)Nc4cc(C(C)(C)C)nn4-c4cccc(OCCN(C)C)c4)c4ccccc43)cn12,0.2 nM
16,Cc1ccc(-n2nc(C(C)(C)C)cc2NC(=O)N[C@H]2CC[C@@H](Oc3ccc4nnc(N5CCOCC5)n4c3)c3ccccc32)cc1,1.1 nM
17,CN(C)CCOc1cc(-n2nc(C(C)(C)C)cc2NC(=O)N[C@H]2CC[C@@H](Oc3ccc4nnc(N5CCCCC5)n4c3)c3ccccc32)ccc1Cl,0.2 nM
18,C[C@H]1CCCCN1c1nnc2ccc(O[C@@H]3CC[C@H](NC(=O)Nc4cc(C(C)(C)C)nn4-c4cnn(CCN5CCCOCC5)c4)c4ccccc43)cn12,0.4 nM
19,CC(C)c1nnc2ccc(O[C@@H]3CC[C@H](NC(=O)Nc4cc(C(C)(C)C)nn4-c4cccc(OCCO)c4)c4ccccc43)cn12,0.4 nM

# System: not listed separately
# Assay: Inhibition of LPS-stimulated TNFalpha release in human PBMC cells preincubated for 1 hr followed by LPS stimulation and measured after 18 hrs
# Assay type: functional, cell-based
row,SMILES,IC50
1,CC(C)(C)c1cc(NC(=O)N[C@H]2CC[C@@H](Oc3ccc4nnc(N5CCCCC5)n4c3)c3ccccc32)n(-c2ccc(Cl)c(O)c2)n1,0.2 nM
2,CC(C)(C)c1cc(NC(=O)N[C@H]2CC[C@@H](Oc3ccc4nnc(N5CCCCC5)n4c3)c3ccccc32)n(-c2cccc(CN3CCCCC3)c2)n1,1.9 nM
3,CC(C)c1nnc2ccc(O[C@@H]3CC[C@H](NC(=O)Nc4cc(C(C)(C)C)nn4-c4ccccc4)c4ccccc43)cn12,0.5 nM
4,C[C@H]1CCCCN1c1nnc2ccc(O[C@@H]3CC[C@H](NC(=O)Nc4cc(C(C)(C)C)nn4-c4cnn(CCN5CCN(C)CC5)c4)c4ccccc43)cn12,3.2 nM
5,C[C@H]1CCCCN1c1nnc2ccc(O[C@@H]3CC[C@H](NC(=O)Nc4cc(C(C)(C)C)nn4-c4cncc(OCCN(C)C)c4)c4ccccc43)cn12,1 nM
6,Cc1ccc(-n2nc(C(C)(C)C)cc2NC(=O)N[C@H]2CC[C@@H](Oc3ccc4nnc(C5CCCCC5)n4c3)c3ccccc32)cc1,0.4 nM
7,CC(C)(C)c1cc(NC(=O)N[C@H]2CC[C@@H](Oc3ccc4nnc(N5CCC(O)CC5)n4c3)c3ccccc32)n(-c2ccc(CO)cc2)n1,14 nM
8,CC(C)c1nnc2ccc(O[C@@H]3CC[C@H](NC(=O)Nc4cc(C(C)(C)C)nn4C)c4ccccc43)cn12,3.9 nM
9,C[C@H]1CCCCN1c1nnc2ccc(O[C@@H]3CC[C@H](NC(=O)Nc4cc(C(C)(C)C)nn4-c4cnn(CCN5CCC(O)CC5)c4)c4ccccc43)cn12,5.1 nM
10,C[C@@H]1CCC[C@H](C)N1c1nnc2ccc(O[C@@H]3CC[C@H](NC(=O)Nc4cc(C(C)(C)C)nn4-c4cccc(OCCN(C)C)c4)c4ccccc43)cn12,1 nM
11,C[C@H]1CCCCN1c1nnc2ccc(O[C@@H]3CC[C@H](NC(=O)Nc4cc(C(C)(C)C)nn4-c4cccc(OCCN5CCN(C)CC5)c4)c4ccccc43)cn12,2.1 nM
12,COCCN(C)CCn1cc(-n2nc(C(C)(C)C)cc2NC(=O)N[C@H]2CC[C@@H](Oc3ccc4nnc(N5CCCC[C@@H]5C)n4c3)c3ccccc32)cn1,0.9 nM
13,Cc1ccc(-n2nc(C(C)(C)C)cc2NC(=O)N[C@H]2CC[C@H](Oc3ccc4nnc(C(C)C)n4c3)CC2)cc1,36 nM
14,C[C@H]1CCCCN1c1nnc2ccc(O[C@@H]3CC[C@H](NC(=O)Nc4cc(C(C)(C)C)nn4-c4cccc(OCCN(C)C)n4)c4ccccc43)cn12,5.8 nM
15,C[C@@H]1CCCCN1c1nnc2ccc(O[C@@H]3CC[C@H](NC(=O)Nc4cc(C(C)(C)C)nn4-c4cccc(OCCN(C)C)c4)c4ccccc43)cn12,1.6 nM
16,Cc1ccc(-n2nc(C(C)(C)C)cc2NC(=O)N[C@H]2CC[C@@H](Oc3ccc4nnc(N5CCOCC5)n4c3)c3ccccc32)cc1,0.9 nM
17,CN(C)CCOc1cc(-n2nc(C(C)(C)C)cc2NC(=O)N[C@H]2CC[C@@H](Oc3ccc4nnc(N5CCCCC5)n4c3)c3ccccc32)ccc1Cl,1.4 nM
18,C[C@H]1CCCCN1c1nnc2ccc(O[C@@H]3CC[C@H](NC(=O)Nc4cc(C(C)(C)C)nn4-c4cnn(CCN5CCCOCC5)c4)c4ccccc43)cn12,0.8 nM
19,CC(C)c1nnc2ccc(O[C@@H]3CC[C@H](NC(=O)Nc4cc(C(C)(C)C)nn4-c4cccc(OCCO)c4)c4ccccc43)cn12,1 nM

# Molecular target: T1, Mitogen-activated protein kinase 14
# Assay: Displacement of SKF-86002 from human inactivated p38alpha assessed as dissociation half life incubated for 2 hrs by fluorescence based analysis
row,SMILES,T1/2
1,CC(C)(C)c1cc(NC(=O)N[C@H]2CC[C@@H](Oc3ccc4nnc(N5CCCCC5)n4c3)c3ccccc32)n(-c2ccc(Cl)c(O)c2)n1,> 16 h
2,CC(C)(C)c1cc(NC(=O)N[C@H]2CC[C@@H](Oc3ccc4nnc(N5CCCCC5)n4c3)c3ccccc32)n(-c2cccc(CN3CCCCC3)c2)n1,1.2 h
3,CC(C)c1nnc2ccc(O[C@@H]3CC[C@H](NC(=O)Nc4cc(C(C)(C)C)nn4-c4ccccc4)c4ccccc43)cn12,1.74 h
4,C[C@H]1CCCCN1c1nnc2ccc(O[C@@H]3CC[C@H](NC(=O)Nc4cc(C(C)(C)C)nn4-c4cnn(CCN5CCN(C)CC5)c4)c4ccccc43)cn12,> 16 h
5,C[C@H]1CCCCN1c1nnc2ccc(O[C@@H]3CC[C@H](NC(=O)Nc4cc(C(C)(C)C)nn4-c4cncc(OCCN(C)C)c4)c4ccccc43)cn12,5 h
6,Cc1ccc(-n2nc(C(C)(C)C)cc2NC(=O)N[C@H]2CC[C@@H](Oc3ccc4nnc(C5CCCCC5)n4c3)c3ccccc32)cc1,> 16 h
7,CC(C)(C)c1cc(NC(=O)N[C@H]2CC[C@@H](Oc3ccc4nnc(N5CCC(O)CC5)n4c3)c3ccccc32)n(-c2ccc(CO)cc2)n1,> 16 h
8,CC(C)c1nnc2ccc(O[C@@H]3CC[C@H](NC(=O)Nc4cc(C(C)(C)C)nn4C)c4ccccc43)cn12,0.07 h
9,C[C@H]1CCCCN1c1nnc2ccc(O[C@@H]3CC[C@H](NC(=O)Nc4cc(C(C)(C)C)nn4-c4cnn(CCN5CCC(O)CC5)c4)c4ccccc43)cn12,> 16 h
10,C[C@@H]1CCC[C@H](C)N1c1nnc2ccc(O[C@@H]3CC[C@H](NC(=O)Nc4cc(C(C)(C)C)nn4-c4cccc(OCCN(C)C)c4)c4ccccc43)cn12,> 16 h
11,C[C@H]1CCCCN1c1nnc2ccc(O[C@@H]3CC[C@H](NC(=O)Nc4cc(C(C)(C)C)nn4-c4cccc(OCCN5CCN(C)CC5)c4)c4ccccc43)cn12,5.1 h
12,COCCN(C)CCn1cc(-n2nc(C(C)(C)C)cc2NC(=O)N[C@H]2CC[C@@H](Oc3ccc4nnc(N5CCCC[C@@H]5C)n4c3)c3ccccc32)cn1,> 16 h
13,Cc1ccc(-n2nc(C(C)(C)C)cc2NC(=O)N[C@H]2CC[C@H](Oc3ccc4nnc(C(C)C)n4c3)CC2)cc1,0.09 h
14,C[C@H]1CCCCN1c1nnc2ccc(O[C@@H]3CC[C@H](NC(=O)Nc4cc(C(C)(C)C)nn4-c4cccc(OCCN(C)C)n4)c4ccccc43)cn12,2.9 h
15,C[C@@H]1CCCCN1c1nnc2ccc(O[C@@H]3CC[C@H](NC(=O)Nc4cc(C(C)(C)C)nn4-c4cccc(OCCN(C)C)c4)c4ccccc43)cn12,5.4 h
16,Cc1ccc(-n2nc(C(C)(C)C)cc2NC(=O)N[C@H]2CC[C@@H](Oc3ccc4nnc(N5CCOCC5)n4c3)c3ccccc32)cc1,5.8 h
17,CN(C)CCOc1cc(-n2nc(C(C)(C)C)cc2NC(=O)N[C@H]2CC[C@@H](Oc3ccc4nnc(N5CCCCC5)n4c3)c3ccccc32)ccc1Cl,3.5 h
18,C[C@H]1CCCCN1c1nnc2ccc(O[C@@H]3CC[C@H](NC(=O)Nc4cc(C(C)(C)C)nn4-c4cnn(CCN5CCCOCC5)c4)c4ccccc43)cn12,> 16 h
19,CC(C)c1nnc2ccc(O[C@@H]3CC[C@H](NC(=O)Nc4cc(C(C)(C)C)nn4-c4cccc(OCCO)c4)c4ccccc43)cn12,1.9 h
